Experimental data as given in patent US20060229258A1, “Steroidal compositions containing hydroxycarboxylic acids and methods of using the same” (priority 2003, published 2006).

Assay: Thermal degradation of prednicarbate during preparation of the emulsion
Type: physicochemical
Conditions: in the emulsion during preparation
Description: In a particularly key aspect of the present inventive process, the emulsion is cooled from a temperature of about 55 to about 85° C. to a temperature of about 25 to about 45° C. before the prednicarbate is dispersed therein. This cooling step is particularly important because a substantial amount of prednicarbate degradation products will form at temperatures above 63° C. Accordingly, it is necessary to cool the emulsion before adding the prednicarbate to maintain the high prednicarbate purity and low amount of prednicarbate degradation products essential to the present inventive compositions.

For `CCOC(=O)O[C@]1(C(=O)COC(=O)CC)CC[C@H]2[C@@H]3CCC4=CC(=O)C=C[C@]4(C)[C@H]3[C@@H](O)C[C@@]21C` [prednicarbate], the “temperatures at which a substantial amount of prednicarbate degradation products will form” value was “above 63 °C”.
